Molecular target: T1, human TPO receptor (Homo sapiens, UniProt P40238)
T1 construct: expressed in transfected cells; host or cells: BaF-B03 (murine IL-3 dependent cell line)
T1 sequence (P40238 26-635): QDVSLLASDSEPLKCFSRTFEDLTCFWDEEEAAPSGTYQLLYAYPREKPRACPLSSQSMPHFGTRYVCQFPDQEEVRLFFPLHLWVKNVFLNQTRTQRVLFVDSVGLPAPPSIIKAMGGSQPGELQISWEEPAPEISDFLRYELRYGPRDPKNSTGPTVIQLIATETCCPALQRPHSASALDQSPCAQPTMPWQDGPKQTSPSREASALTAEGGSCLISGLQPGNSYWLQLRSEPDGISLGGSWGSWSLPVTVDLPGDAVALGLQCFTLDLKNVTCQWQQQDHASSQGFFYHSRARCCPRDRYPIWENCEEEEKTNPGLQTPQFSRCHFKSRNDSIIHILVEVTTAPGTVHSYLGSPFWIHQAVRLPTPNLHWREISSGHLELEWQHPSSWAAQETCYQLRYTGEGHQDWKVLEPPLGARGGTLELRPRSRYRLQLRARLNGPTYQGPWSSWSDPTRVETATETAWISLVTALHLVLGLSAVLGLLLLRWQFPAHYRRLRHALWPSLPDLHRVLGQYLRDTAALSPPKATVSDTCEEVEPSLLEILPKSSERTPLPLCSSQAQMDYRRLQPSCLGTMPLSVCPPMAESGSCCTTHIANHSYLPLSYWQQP
Test: Thrombopoietic activity: proliferation of TPO dependent BaF/hTPOR cells (WST-1)
Assay type: cell-based
Conditions: BaF/hTPOR cell line (BaF-B03 with human TPO receptor), without IL-3; 20 hours incubation + 4 hours WST-1, absorbance 450 nm; ED50 = half concentration of the concentration showing maximum thrombopoietic activity
Protocol: BAF/hTPOR cells were maintained in RPMI medium and WEHI-3B conditioned medium as a source of murine interleukin-3 (IL-3). These cells were washed and resuspended in RPMI medium without a source of murine IL-3 and seeded into each well of 96-well microtiter plates at a density of 5×10^4 cells per well in the absence or presence of various concentration of hTPO or the present compound. After incubation at 37° C. for 20 hours in the 5% CO2 incubator, 10% WST-1 reagent (Takara Biomedicals, Japan) was added to each wells and the cells were further incubated for 4 hours. The absorbance at 450 nm was measured.

EC50	SMILES
270 nM	COC(=O)CC1Cc2ccc(C(=O)Nc3nc(-c4ccc(Cl)c(Cl)c4)cs3)cc2C1=O (centres unmarked) [Compound A-13]
250 nM	COC(=O)C1CC(=O)c2cc(C(=O)Nc3nc(-c4ccc(Cl)c(Cl)c4)cs3)ccc2C1 (centres unmarked) [Compound A-7]
567 nM	O=C(Nc1nc(-c2ccc(Cl)c(Cl)c2)cs1)c1ccc2cc(C(=O)O)oc2c1 [Compound C-4]
2280 nM	COC(=O)[C@@H]1Cc2ccc(C(=O)Nc3nc(-c4ccc(Cl)c(Cl)c4)cs3)cc2[C@H](O)C1 [Compound A-8]
21 nM	O=C(Nc1nc(-c2cccc(C(F)(F)F)c2F)cs1)c1ccc2sc(C(=O)O)cc2c1 [Compound D-1]
25 nM	CCCCCCCc1cccc(-c2csc(NC(=O)c3ccc4c(c3)CCC(C(=O)O)C4)n2)c1F (centres unmarked) [Compound B-26]
43 nM	COC(=O)c1ccc2cc(C(=O)Nc3nc(-c4ccc(Cl)c(Cl)c4)cs3)ccc2c1 [Compound A-18]
219 nM	CCCCc1cccc(-c2csc(NC(=O)c3ccc4c(c3)CCC(C(=O)O)C4)n2)c1 (centres unmarked) [Compound B-3]
965 nM	O=C(Nc1nc(-c2ccc(Cl)c(Cl)c2)cs1)c1ccc2c(c1)CC(C(=O)O)CC2 (centres unmarked) [Compound A-3]
40 nM	O=C(Nc1nc(-c2ccc(Cl)c(Cl)c2)cs1)c1ccc2c(c1)CCC(C(=O)O)C2 (centres unmarked) [Compound A-1]
60 nM	CCCCc1cccc(-c2csc(NC(=O)c3ccc4c(c3)CCC(C(=O)O)C4)n2)c1F (centres unmarked) [Compound B-21]
74 nM	O=C(Nc1nc(-c2cccc(C3CCCCC3)c2F)cs1)c1ccc2c(c1)CCC(C(=O)O)C2 (centres unmarked) [Compound B-12]
370 nM	O=C(Nc1nc(-c2cccc(C(F)(F)F)c2F)cs1)c1ccc2c(c1)CC(C(=O)O)C2 [Compound D-3]
342 nM	O=C(Nc1nc(-c2cccc(C3CCOCC3)c2F)cs1)c1ccc2c(c1)CCC(C(=O)O)C2 (centres unmarked) [Compound B-13]
376 nM	O=C(O)c1ccc2c(c1)CCC(C(=O)Nc1nc(-c3ccc(Cl)c(Cl)c3)cs1)C2 (centres unmarked) [Compound A-2]
42 nM	O=C(Nc1nc(-c2cccc(OC(F)(F)F)c2F)cs1)c1ccc2c(c1)CCC(C(=O)O)C2 (centres unmarked) [Compound B-14]
104 nM	O=C(Nc1nc(-c2cccc(Cc3ccccc3)c2F)cs1)c1ccc2c(c1)CCC(C(=O)O)C2 (centres unmarked) [Compound B-31]
146 nM	Cc1sc(NC(=O)c2ccc3c(c2)CCC(C(=O)O)C3)nc1-c1cccc(C(F)(F)F)c1 (centres unmarked) [Compound B-17]
49 nM	CCCc1c(Br)ccc(-c2csc(NC(=O)c3ccc4c(c3)CCC(C(=O)O)C4)n2)c1F (centres unmarked) [Compound B-29]
23 nM	O=C(O)c1ccc2cc(C(=O)Nc3nc(-c4ccc(Cl)c(Cl)c4)cs3)ccc2c1 [Compound A-17]
48 nM	CC(C)Cc1cccc(-c2csc(NC(=O)c3ccc4c(c3)CCC(C(=O)O)C4)n2)c1F (centres unmarked) [Compound B-19]

EC50	SMILES
210 nM	O=C(O)C1=Cc2ccc(C(=O)Nc3nc(-c4cccc(C(F)(F)F)c4F)cs3)cc2C1 [Compound D-5]
190 nM	COC(=O)c1ccc2cc(C(=O)Nc3nc(-c4ccc(Cl)c(Cl)c4)cs3)ccc2n1 [Compound A-22]
38 nM	CCOC(c1cccc(-c2csc(NC(=O)c3ccc4c(c3)CCC(C(=O)O)C4)n2)c1F)C(C)C (centres unmarked) [Compound B-25]
552 nM	COC(=O)C1Cc2ccc(C(=O)Nc3nc(-c4ccc(Cl)c(Cl)c4)cs3)cc2C(=O)C1F (centres unmarked) [Compound A-11]
66 nM	CC(C)c1cccc(-c2csc(NC(=O)c3ccc4c(c3)CCC(C(=O)O)C4)n2)c1F (centres unmarked) [Compound B-11]
306 nM	O=C(Nc1nc(-c2ccc(Cl)c(Cl)c2)cs1)c1ccc2c(c1)C(F)CC(C(=O)O)C2 (centres unmarked) [Compound A-9]
48 nM	O=C(Nc1nc(-c2ccc(Cl)c(Cl)c2)c(F)s1)c1ccc2c(c1)CCC(C(=O)O)C2 (centres unmarked) [Compound B-10]
45 nM	COC(c1cccc(-c2csc(NC(=O)c3ccc4c(c3)CCC(C(=O)O)C4)n2)c1F)C1CCCCC1 (centres unmarked) [Compound B-23]
71 nM	O=C(Nc1nc(-c2ccc(Cl)c(Cl)c2)cs1)c1ccc2cc(C(=O)O)sc2c1 [Compound C-2]
28.1 nM	O=C(Nc1nc(-c2cccc(F)c2F)cs1)c1ccc2c(c1)CCC(C(=O)O)C2 (centres unmarked) [Compound B-9]
98 nM	CCCCOc1cccc(-c2csc(NC(=O)c3ccc4c(c3)CCC(C(=O)O)C4)n2)c1F (centres unmarked) [Compound B-16]
120 nM	O=C(Nc1nc(-c2cccc(C(F)(F)F)c2)cs1)c1ccc2c(c1)CCC(C(=O)O)C2 (centres unmarked) [Compound B-8]
1930 nM	COC(=O)c1cc2ccc(C(=O)Nc3nc(-c4cccc(C(F)(F)F)c4F)cs3)cc2oc1=O [Compound D-8]
24 nM	CCCCCCCCc1cccc(-c2csc(NC(=O)c3ccc4c(c3)CCC(C(=O)O)C4)n2)c1F (centres unmarked) [Compound B-27]
53 nM	O=C(Nc1nc(-c2cccc(C(F)(F)F)c2)c(F)s1)c1ccc2c(c1)CCC(C(=O)O)C2 (centres unmarked) [Compound B-24]
23 nM	CCCCCCCCCCc1cccc(-c2csc(NC(=O)c3ccc4c(c3)CCC(C(=O)O)C4)n2)c1F (centres unmarked) [Compound B-28]
16500 nM	O=C(O)c1ccc2sc(C(=O)Nc3nc(-c4ccc(Cl)c(Cl)c4)cs3)cc2c1 [Compound E-1]
69 nM	O=C(Nc1nc(-c2cccc(C(F)(F)F)c2F)cs1)c1ccc2c(c1)CCC(C(=O)O)C2 (centres unmarked) [Compound B-1]
250 nM	CCOC(=O)C1=Cc2ccc(C(=O)Nc3nc(-c4cccc(C(F)(F)F)c4F)cs3)cc2C1 [Compound D-4]
68 nM	CCCc1cccc(-c2csc(NC(=O)c3ccc4c(c3)CCC(C(=O)O)C4)n2)c1F (centres unmarked) [Compound B-20]
142 nM	CCOCCc1cccc(-c2csc(NC(=O)c3ccc4c(c3)CCC(C(=O)O)C4)n2)c1F (centres unmarked) [Compound B-30]

EC50	SMILES
240 nM	COC(=O)CC1Cc2ccc(C(=O)Nc3nc(-c4ccc(Cl)c(Cl)c4)cs3)cc2C1 (centres unmarked) [Compound A-15]
45 nM	O=C(O)C1=Cc2ccc(C(=O)Nc3nc(-c4cccc(C(F)(F)F)c4F)cs3)cc2CC1 [Compound D-7]
2540 nM	CCOC(=O)C1Cc2cc(C(=O)Nc3nc(-c4cccc(C(F)(F)F)c4F)cs3)ccc2C1=O [Compound D-6]
64 nM	COC(c1cccc(-c2csc(NC(=O)c3ccc4c(c3)CCC(C(=O)O)C4)n2)c1F)C(C)C (centres unmarked) [Compound B-22]
280 nM	O=C(Nc1nc(-c2ccc(F)c(F)c2)cs1)c1ccc2c(c1)CCC(C(=O)O)C2 (centres unmarked) [Compound B-7]
66 nM	CCCCCc1cc(-c2csc(NC(=O)c3ccc4c(c3)CCC(C(=O)O)C4)n2)ccc1F (centres unmarked) [Compound B-6]
59 nM	O=C(Nc1nc(-c2cccc(CCc3ccccc3)c2F)cs1)c1ccc2c(c1)CCC(C(=O)O)C2 (centres unmarked) [Compound B-15]
148 nM	O=C(Nc1nc(-c2ccc(Cl)c(Cl)c2)cs1)c1ccc2c(c1)CCC(F)(C(=O)O)C2 (centres unmarked) [Compound A-4]
110 nM	O=C(Nc1nc(-c2ccc(C(F)(F)F)cc2F)cs1)c1ccc2c(c1)CCC(C(=O)O)C2 (centres unmarked) [Compound B-4]
56 nM	CCCCCc1cccc(-c2csc(NC(=O)c3ccc4c(c3)CCC(C(=O)O)C4)n2)c1F (centres unmarked) [Compound B-5]
96 nM	CCOC(C)(C)c1cccc(-c2csc(NC(=O)c3ccc4c(c3)CCC(C(=O)O)C4)n2)c1F (centres unmarked) [Compound B-32]
230 nM	O=C(O)CC1Cc2ccc(C(=O)Nc3nc(-c4ccc(Cl)c(Cl)c4)cs3)cc2C1=O (centres unmarked) [Compound A-14]
230 nM	O=C(O)CC1Cc2ccc(C(=O)Nc3nc(-c4ccc(Cl)c(Cl)c4)cs3)cc2C1 (centres unmarked) [Compound A-16]
214 nM	O=C(Nc1nc(-c2ccc3c(c2)CCCC3)cs1)c1ccc2c(c1)CCC(C(=O)O)C2 (centres unmarked) [Compound B-2]
880 nM	Cc1c(C(=O)O)oc2ccc(C(=O)Nc3nc(-c4ccc(Cl)c(Cl)c4)cs3)cc12 [Compound C-5]
19 nM	O=C(O)c1ccc2cc(C(=O)Nc3nc(-c4cccc(C(F)(F)F)c4F)cs3)ccc2c1 [Compound D-2]
210 nM	O=C(Nc1nc(-c2ccc(Cl)c(Cl)c2)cs1)c1ccc2c(c1)C(=O)CC(C(=O)O)C2 (centres unmarked) [Compound A-6]
995 nM	O=C(Nc1nc(-c2ccc(Cl)c(Cl)c2)cs1)c1ccc2oc(C(=O)O)cc2c1 [Compound C-3]
72 nM	O=C(Nc1nc(-c2cccc(C3CCCC3)c2F)cs1)c1ccc2c(c1)CCC(C(=O)O)C2 (centres unmarked) [Compound B-18]
165 nM	COC(=O)C1(F)CCc2cc(C(=O)Nc3nc(-c4ccc(Cl)c(Cl)c4)cs3)ccc2C1 (centres unmarked) [Compound A-5]

Reference: US7169931B2, “Cyclic compounds exhibiting thrombopoietin receptor agonism” (Shionogi & Co., Ltd., priority 2001, dated 2007)
